Measured values: patent US20230372301A1, “TREATMENTS WITH NIROGACESTAT” (SpringWorks Therapeutics, Inc., priority 2022, published 2023)
Counter-ions that a name gives are not always drawn. Like-named read-outs stand apart in the source and are kept apart here.

How the values were obtained:
[1] = Pharmacokinetics of single oral doses of nirogacestat dihydrobromide; format: in vivo, human; conditions: for AUC(0-inf) / AUC(0-t) / Cmax / half-life / Tmax / Vd/F: human, in vivo, po
[2] = Pharmacokinetics of 150 mg nirogacestat dihydrobromide twice daily at steady state exposure; format: in vivo, human; conditions: 150 mg (free base equivalent dose) twice daily, oral
Procedure: The pharmacokinetic parameters for oral doses of 150 mg (free base equivalent dose) nirogacestat dihydrobromide twice daily at steady state exposure is provided in Table 2E below.

[3] = COHORT 1: 150 mg (1 × 150 mg), Period 2
[4] = COHORT 1: 150 mg (3 × 50 mg), Period 1
[5] = human, in vivo, steady state exposure

Question: What does the source list for `CCC[C@H](N[C@H]1CCc2cc(F)cc(F)c2C1)C(=O)Nc1cn(C(C)(C)CNCC(C)(C)C)cn1` [nirogacestat dihydrobromide]?
Answer: CL/F, Geometric Mean [1, 3]: 49.7 L/h; CL/F, Median [1, 3]: 48.4 L/h; CL/F, Geometric Mean [1, 4]: 49.2 L/h; CL/F, Median [1, 4]: 57.0 L/h; CL/F, Geometric Mean ([1]; COHORT 2: 100 mg, Period 1): 56.1 L/h; CL/F, Median ([1]; COHORT 2: 100 mg, Period 1): 58.4 L/h; CL/F, Geometric Mean ([1]; COHORT 3: 50 mg, Period 1): 87.6 L/h; CL/F, Median ([1]; COHORT 3: 50 mg, Period 1): 74.9 L/h; AUC(0-inf) ([1]; 50 mg, COHORT 3: 50 mg, Period 1, read-out: AUCinf, Geometric Mean): 571 ng·h/mL; AUC(0-inf) ([1]; 50 mg, COHORT 3: 50 mg, Period 1, read-out: AUCinf, Median): 674 ng·h/mL; AUC(0-t) ([1]; 50 mg, COHORT 3: 50 mg, Period 1, read-out: AUClast, Geometric Mean): 545 ng·h/mL; AUC(0-t) ([1]; 50 mg, COHORT 3: 50 mg, Period 1, read-out: AUClast, Median): 653 ng·h/mL; Cmax ([1]; 50 mg, COHORT 3: 50 mg, Period 1, read-out: Cmax, Geometric Mean): 183 ng/mL; Cmax ([1]; 50 mg, COHORT 3: 50 mg, Period 1, read-out: Cmax, Median): 209 ng/mL; half-life ([1]; 50 mg, COHORT 3: 50 mg, Period 1, read-out: Half-life, Geometric Mean (converted)): 19.3 h; half-life ([1]; 50 mg, COHORT 3: 50 mg, Period 1, read-out: Half-life, Median (converted)): 23.3 h; Tmax ([1]; 50 mg, COHORT 3: 50 mg, Period 1, read-out: Tmax, Geometric Mean): 0.829 h; Tmax ([1]; 50 mg, COHORT 3: 50 mg, Period 1, read-out: Tmax, Median): 1 h; Vd/F ([1]; 50 mg, COHORT 3: 50 mg, Period 1, read-out: Vz/F, Geometric Mean): 2440 L; Vd/F ([1]; 50 mg, COHORT 3: 50 mg, Period 1, read-out: Vz/F, Median): 2730 L; AUC(0-inf) ([1]; 100 mg, COHORT 2: 100 mg, Period 1, read-out: AUCinf, Geometric Mean): 1780 ng·h/mL; AUC(0-inf) ([1]; 100 mg, COHORT 2: 100 mg, Period 1, read-out: AUCinf, Median): 1710 ng·h/mL; AUC(0-t) ([1]; 100 mg, COHORT 2: 100 mg, Period 1, read-out: AUClast, Geometric Mean): 1720 ng·h/mL; AUC(0-t) ([1]; 100 mg, COHORT 2: 100 mg, Period 1, read-out: AUClast, Median): 1660 ng·h/mL; Cmax ([1]; 100 mg, COHORT 2: 100 mg, Period 1, read-out: Cmax, Geometric Mean): 435 ng/mL; Cmax ([1]; 100 mg, COHORT 2: 100 mg, Period 1, read-out: Cmax, Median): 433 ng/mL; half-life ([1]; 100 mg, COHORT 2: 100 mg, Period 1, read-out: Half-life, Geometric Mean (converted)): 25.2 h; half-life ([1]; 100 mg, COHORT 2: 100 mg, Period 1, read-out: Half-life, Median (converted)): 24.4 h; Tmax ([1]; 100 mg, COHORT 2: 100 mg, Period 1, read-out: Tmax, Geometric Mean): 1.19 h; Tmax ([1]; 100 mg, COHORT 2: 100 mg, Period 1, read-out: Tmax, Median): 1.28 h; Vd/F ([1]; 100 mg, COHORT 2: 100 mg, Period 1, read-out: Vz/F, Geometric Mean): 2040 L; Vd/F ([1]; 100 mg, COHORT 2: 100 mg, Period 1, read-out: Vz/F, Median): 2040 L; AUC(0-inf) ([1]; 150 mg, COHORT 1: 150 mg (1 × 150 mg), Period 2, read-out: AUCinf, Geometric Mean): 3020 ng·h/mL; AUC(0-inf) ([1]; 150 mg, COHORT 1: 150 mg (1 × 150 mg), Period 2, read-out: AUCinf, Median): 3100 ng·h/mL; AUC(0-t) ([1]; 150 mg, COHORT 1: 150 mg (1 × 150 mg), Period 2, read-out: AUClast, Geometric Mean): 2930 ng·h/mL; AUC(0-t) ([1]; 150 mg, COHORT 1: 150 mg (1 × 150 mg), Period 2, read-out: AUClast, Median): 3040 ng·h/mL; Cmax ([1]; 150 mg, COHORT 1: 150 mg (1 × 150 mg), Period 2, read-out: Cmax, Geometric Mean): 686 ng/mL; Cmax ([1]; 150 mg, COHORT 1: 150 mg (1 × 150 mg), Period 2, read-out: Cmax, Median): 662 ng/mL; half-life ([1]; 150 mg, COHORT 1: 150 mg (1 × 150 mg), Period 2, read-out: Half-life, Geometric Mean (converted)): 24.7 h; half-life ([1]; 150 mg, COHORT 1: 150 mg (1 × 150 mg), Period 2, read-out: Half-life, Median (converted)): 26.3 h; Tmax ([1]; 150 mg, COHORT 1: 150 mg (1 × 150 mg), Period 2, read-out: Tmax, Geometric Mean): 1.2 h; Tmax ([1]; 150 mg, COHORT 1: 150 mg (1 × 150 mg), Period 2, read-out: Tmax, Median): 1.5 h; Vd/F ([1]; 150 mg, COHORT 1: 150 mg (1 × 150 mg), Period 2, read-out: Vz/F, Geometric Mean): 1770 L; Vd/F ([1]; 150 mg, COHORT 1: 150 mg (1 × 150 mg), Period 2, read-out: Vz/F, Median): 1720 L; AUC(0-inf) ([1]; 150 mg, COHORT 1: 150 mg (3 × 50 mg), Period 1, read-out: AUCinf, Geometric Mean): 3050 ng·h/mL; AUC(0-inf) ([1]; 150 mg, COHORT 1: 150 mg (3 × 50 mg), Period 1, read-out: AUCinf, Median): 2640 ng·h/mL; AUC(0-t) ([1]; 150 mg, COHORT 1: 150 mg (3 × 50 mg), Period 1, read-out: AUClast, Geometric Mean): 2960 ng·h/mL; AUC(0-t) ([1]; 150 mg, COHORT 1: 150 mg (3 × 50 mg), Period 1, read-out: AUClast, Median): 2580 ng·h/mL; Cmax ([1]; 150 mg, COHORT 1: 150 mg (3 × 50 mg), Period 1, read-out: Cmax, Geometric Mean): 733 ng/mL; Cmax ([1]; 150 mg, COHORT 1: 150 mg (3 × 50 mg), Period 1, read-out: Cmax, Median): 697 ng/mL; half-life ([1]; 150 mg, COHORT 1: 150 mg (3 × 50 mg), Period 1, read-out: Half-life, Geometric Mean (converted)): 25 h; half-life ([1]; 150 mg, COHORT 1: 150 mg (3 × 50 mg), Period 1, read-out: Half-life, Median (converted)): 26.3 h; Tmax ([1]; 150 mg, COHORT 1: 150 mg (3 × 50 mg), Period 1, read-out: Tmax, Geometric Mean): 1.34 h; Tmax ([1]; 150 mg, COHORT 1: 150 mg (3 × 50 mg), Period 1, read-out: Tmax, Median): 1.49 h; Vd/F ([1]; 150 mg, COHORT 1: 150 mg (3 × 50 mg), Period 1, read-out: Vz/F, Geometric Mean): 1770 L; Vd/F ([1]; 150 mg, COHORT 1: 150 mg (3 × 50 mg), Period 1, read-out: Vz/F, Median): 1830 L; Time to steady-state [2]: Approximately 8 days; AUC [2, 5]: 6430 ng·h/mL; Cmax [2, 5]: 1250 ng/mL
